Assay results from patent publication US20210381022A1, “INTEGRATED DRUG DISCOVERY PLATFORM FOR INBORN ERROR OF METABOLISM DISORDERS” (RAMOT AT TEL-AVIV UNIVERSITY LTD., priority 2018, published 2021).
Entries after “also recorded” stand apart in the source; their conditions may differ.

How the values were obtained:
fah-1 RNAi treated worms = test: C. elegans model for Tyrosinemia (fah-1 RNAi); format: in vivo, Caenorhabditis elegans; conditions: fah-1 RNAi, tyrosine added, EGCG added
Procedure: (§1) Wild-type N2, RB857 and NL2099 worms were obtained from the Caenorhabditis Genetics Center. RNAi clones was obtained from the Ahringer RNAi library as previously described [Fisher A L, et al., J. Biol. Chem. 283: 9127-9135(2008)]. Worms were grown on NGM media without peptone and the metabolites were added into a boiling media. Baicalein and EGCG were added to a media after cooled down to 45 degrees.
Mutations in different enzymes that are involved in the tyrosine degradation pathway are responsible for different types of Tyrosinemia. The tyrosine degradation pathway in mammals and C. elegans in conserved and the most severe is type I Tyrosinemia, which is caused by mutations affecting the last enzyme in the pathway, fumarylacetoacetate hydrolase (FAH). To study Tyrosinemia in C. elegans model, an RNAi was used that specifically silences the fumarylacetoacetate hydrolase (fah-1), as was previously reported (K10C4.2). RNAi directed against fah-1 causes severe phenotype of reduced size, impaired fertility and reduction of total number of viable worms (FIG. 32).

[1] = tested on: tyrosine aggregates in aro3Δ mutant cells; test: Flow cytometry with ProteoStat staining of aro3Δ mutant; format: cell-based, Saccharomyces cerevisiae; conditions: tyrosine 0.02 mM, EGCG 5 mM
Procedure: An amount of 1 mL of logarithmic cells were washed with PBS buffer and sonicated using 15 s pulses at 20% power. For each sample, 2*10^6 cells were resuspended with ProteoStat dye (Enzo Life Sciences) diluted 1:3000 in ProteoStat assay buffer. Cells were incubated for 15 min at room temperature protected from light. Flow cytometry was preformed using Stratedigm S1000EXi and the CellCapTure software (Stratedigm, San Jose, Calif.). Live cells were gated (P1) by forward scatter and side scatter. Fluorescence channels for FITC (530/30) and PE-Cy5 (676/29) were used utilizing a 488 nm laser source. A total of 50,000 events were acquired for each sample. Analyses were performed using FlowJo software (TreeStar, version 10).
In order to examine whether the inhibition in cell growth in a non-linear cooperative manner upon tyrosine feeding (FIG. 23A, 23B) is associated with in vivo formation of amyloid-like assemblies, cells were stained with ProteoStat®, a well-established amyloid-specific fluorescent dye that was previously shown to detect the presence of intracellular protein amyloid-like aggregates in living bacterial cells with high specificity, even when the target proteins are expressed at low levels.
In order to examine the effect of EGCG on cell growth, the aro3Δ mutant was spotted on 4a.a SD plates that contained tyrosine alone or tyrosine with different concentrations of EGCG. […]

wild-type strain = test: Yeast growth assay of wild-type strain; format: cell-based, Saccharomyces cerevisiae; conditions: tyrosine in media, EGCG added
Procedure: (§2) Strains were grown over night at 30° C. in SD medium without adenine. For spotting assays, strains were diluted to 6.25*10^7 cells/mL and were then 5-fold serially diluted and spotted on SD media with the indicated concentrations of adenine or TA (Sigma-Aldrich). Plates were incubated at 30° C. for 2 days. […] For OD600 measurements, strains were diluted to OD600 0.01, 200 μL of cells were platted on 96 wells plates and incubated at 30° C. for 25 hours with continuous shaking. OD600 was measured using Tecan™ SPARK 10M plate reader.

phenylalanine assemblies = conditions: reference [4]; cited from earlier work
aro3Δ mutant = test: Yeast growth assay of aro3Δ mutant with tyrosine feeding; format: cell-based, Saccharomyces cerevisiae
Procedure: as §2
The focus was put on a strain with a deletion of the ARO3 gene in which a significant decrease in cellular growth was observed upon tyrosine feeding (see FIG. 21). The inventors aimed to determine whether the toxic effect was influenced by different levels of tyrosine. Thus, the cellular growth of wild-type and the aro3Δ mutant was examined by serial dilutions on selective plates that were supplemented with different concentrations of tyrosine (FIG. 21A). In addition, cellular growth was also examined by measuring the turbidity of the medium upon addition of the indicated concentration of tyrosine (FIG. 21B). […] Thus, cell growth is affected by tyrosine levels in a dose-dependent manner which further supports the notion that the toxicity in the aro3Δ mutant results from the presence of tyrosine.
In order to examine the effect of EGCG on cell growth, the aro3Δ mutant was spotted on 4a.a SD plates that contained tyrosine alone or tyrosine with different concentrations of EGCG. […] Thus, the lag phase in the presence of EGCG was nearly the same as cells unexposed to tyrosine, indicating the potent ability of EGCG to eliminate the tyrosine sensitivity of the aro3Δ mutant. […] Next, the inventors aimed to gain additional insights into the effect of EGCG on the amyloid-like fibrils formed by the accumulation of tyrosine in the aro3Δ mutant cells. For that purpose, cells were stained with the amyloid-specific dye ProteoStat®, and FACS was applied to detect tyrosine aggregates. […] (FIG. 25).

mutant yeast strain = test: IC50 assay in yeast, rescue from adenine toxicity (HTS growth format); format: cell-based; conditions: Saccharomyces cerevisiae, 22 h, read-out: IC50, rescuing mutant yeast strain from adenine toxicity
Procedure: Yeast strains were grown over night at 30° C. in SD medium without adenine and were diluted to OD600 0.005. 80 μL of cells were platted on 384 wells plates and incubated at 30° C. for 22 hours with continuous shaking. OD600 was measured using Tecan™ SPARK 10M plate reader.
Yeast strains were diluted to OD600 0.005. 80 μL of cells were platted on 384 wells plates. Compounds were added with Tecan™ D300 printer at relevant concentrations and plates were incubated at 30° C. for 22 hours with continuous shaking. OD600 was measured using Tecan™ SPARK 10M plate reader. IC50 calculations were performed with CDD software.
The high-throughput screening was calibrated for 384 plate format using phenotypic assay based on yeast growth rate (measured by OD). The goal was to find hit compounds that will dramatically improve the growth rate as compared to the salvage mutant in the presence of adenine. All relevant controls were used including: mutant yeast grown without adenine addition, WT yeast, and mutant yeast in the presence of adenine with Prazosin as a positive control compound. Potential hits were selected after calculations of growth curve slopes and area under the curve during the logarithmic phase. After hit validation and dose response experiments, hits displaying low IC50 rates were selected implying on a good potential for some of the compounds (FIG. 14).

ADA deficient LCLs = test: LCLs survival assay (XTT), ADA deficient LCLs; format: cell-based, human; conditions: 2 μM Purpurin, with adenosine, 72 hours, vs control LCLs
Procedure: 24 hours after seeding in 96 round bottom plates in full medium cells were washed once with medium without serum and placed in medium without serum. Following 72 hours of incubation with or without Adenosine (200 ug/ml) and with or without purpurin (2 uM), XTT based cell viability assay was performed. Absorbance was measured with Tecan™ SPARK 10M plate reader.
In order to assess the toxic effect of adenosine aggregates, XTT based cell viability assays were performed on healthy and ADA deficient LCLs. Cells went through similar procedure as described above except adenosine was at 300 μg/ml. Survival percentage was calculated as absorbance with adenosine divided by absorbance without adenosine. […] Moreover. 4 out of 5 ADA deficient cell lines display less than 20% survival (FIG. 15B cell lines 7,8,9,11,12).

adenine fibrils = test: ThT assay of adenine self-assembly inhibition in vitro; conditions: adenine 8 mg/ml in PBS with inhibitor
Procedure: Adenine was dissolved at 90° C. in PBS to a final concentration of 8 mg/ml and mixed with the indicated inhibitor, at the indicated concentrations, or with PBS as a control, followed by addition of ThT in PBS. ThT emission data at 480 nm (excitation at 450 nm) were measured at the end point.
Adenine was dissolved to a final concentration of 8 mg/ml at 90° C. in PBS. The solution was plated on a 96-well black plate and mixed with the inhibitor baicalein at the stated concentration, and with 20 μm ThT (final concentration). Fluorescence (excitation at 450 nm, emission at 480 nm) was recorded over time using a Tecan™ Infinite® 200 PRO plate reader. Data processing was performed using the OriginLab software.
To further examine if the compounds specifically target the adenosine amyloid-like structures. the compounds were tested using adenine in-vitro aggregation assay. Adenine was self-assembled with and without the inhibitors and stained with the amyloids dye, Thioflavin T (ThT). […] More specifically. Adenosine (30 mg/mL) and guanosine (3 mg/ml) were dissolved in PBS at 90° C., followed by the addition of ThT at final concentration of 20 μM. ThT emission data at 480 nm (excitation at 450 nm) was measured over time. TEM images show elongated adenosine fibrils (10 mg/mL) and guanosine fibrils (1 mg/mL) (FIGS. 34A and 34B, respectively). ThT fluorescence assay of adenosine and guanosine assemblies, are shown by FIGS. 34C, and 34D respectively.

[2] = tested on: adenosine aggregates in ADA deficient LCLs; test: Aggregation assay (Proteostat, FACS) on ADA deficient LCLs; format: cell-based, human; conditions: for formation of adenosine aggregates (aggregation level, Proteostat staining): patient derived lymphoblastoids, 19 concentrations from 50 μM to 0.003 μM
Procedure: 24 hours after seeding in full medium cells were washed with medium without serum and placed in medium without serum. Following 72 hours of incubation with or without Adenosine (A9251 SIGMA) (200 ug/ml), cells were washed with PBS and stained for adenosine aggregates with Proteostat dye (ENZ-51023-KP002). Proteostat concentration was 1:3000 of diluted stock. Following 15 minutes' incubation, cells were washed with PBS and mean fluorescence was measured with FACS.
Cells were treated with adenosine alone or with adenosine with compounds. Compound activity was tested in 19 concentrations in range from 50 uM to 0.003 uM.
Readouts: Proteostat Fluorescence intensity was measured with FACS at 2 excitation wavelengths: 488 nm and 550 nm. Emission wavelength was 600 nm.
24 hours after seeding in 96 round bottom plates in full medium cells were washed once with medium without serum and placed in medium without serum. Following 72 hours of incubation with or without Adenosine (200 ug/ml) and with or without purpurin (2 uM), cells were washed once with PBS and stained for adenosine aggregates with Proteostat dye (Enzo Life Sciences). Proteostat concentration was 1:4000 of diluted stock. Following 15 minutes incubation, cells were washed with PBS and mean flow cytometry was preformed using Stratedigm S1000EXi and the CellCapTure software (Stratedigm, San Jose, Calif.). Analyses were performed using FlowJo software (TreeStar, version 10).
For quantification of intracellular adenosine aggregates by FACS analyses, 100,000 cells were seeded in 96 well plates in full medium. After 24 hours, cells were centrifuged, washed once and added with serum free medium with or without Adenosine (200 μg/ml). After incubation of 72 hours cells were washed with PBS and stained for adenosine aggregates with Proteostat dye. Following 15 minutes incubation, cells were washed with PBS and mean fluorescence was measured with FACS. Mean cell fluorescence of every cell line was normalized to its signal without adenosine and data is presented as percentage of aggregates.

gcv1Δ cells = conditions: SD media with glycine
[3] = tested on: RB857 (PAH-1 mutant) and N2 (WT) worms; test: C. elegans model for PKU; format: in vivo, Caenorhabditis elegans
Procedure: as §1
To study PKU in C. elegans model, a strain was used with mutation in the PAH-1 gene (RB857)]. […] Next, the effect of one of the previously identified hits i.e. baicalein was examined on the development of worms. The life cycle of C. elegans is comprised of the embryonic stage, four larval stages (L1-L4) and adulthood. The end of each larval stage is marked with a molt, during which a new, stage-specific cuticle is synthesized and the old one is shed.

aro4Δ mutant = test: Yeast growth assay of aro4Δ mutant with phenylalanine; format: cell-based, Saccharomyces cerevisiae; conditions: SD medium with phenylalanine
From the text: The focus was put on a strain with a deletion of the ARO4 gene. The inventors aimed to determine whether the toxic effect is influenced by phenylalanine feeding. Thus, the cellular growth of wild-type and the aro4Δ mutant was examined by serial dilutions on selective plates that were supplemented with phenylalanine. In addition, cellular growth was also examined by measuring the turbidity of the medium upon addition of phenylalanine (FIG. 26A, 26B).

SMILES: O=C(O[C@@H]1Cc2c(O)cc(O)cc2O[C@@H]1c1cc(O)c(O)c(O)c1)c1cc(O)c(O)c(O)c1 [EGCG, epigallocatechin gallate]
- fertility of worms (fah-1 RNAi treated worms): enhance the fertility of worms; also recorded: partially restore
- total number of viable worms (fah-1 RNAi treated worms): elevation of the total number of worms; also recorded: partially restore
- tyrosine aggregates percentage (ProteoStat, FACS) [1]: dramatic reduction in the tyrosine aggregates percentage
- growth of wild-type cells (wild-type strain): no significant changes
- phenylalanine aggregation and cytotoxicity of the assemblies in vitro (phenylalanine assemblies): counteract
- growth of aro3Δ mutant (aro3Δ mutant; 4a.a SD with 0.03 mM tyrosine, different concentrations of EGCG): significant improvement in growth in a dose-dependent manner
- lag phase of cell growth kinetics (aro3Δ mutant; tyrosine in media, EGCG treated vs untreated cells): notably shorter

SMILES: O=C1c2ccccc2C(=O)c2c(O)c(O)cc(O)c21 [Purpurin, 1,2,4-trihydroxyanthracene-9,10-dione]
- IC50 (mutant yeast strain): 14.4 nM
- cell viability (XTT) (ADA deficient LCLs): substantial improvement in cell viability
- amyloids staining (ThT, end point) (adenine fibrils): significantly reduced the amyloids staining
- Proteostat staining of adenosine aggregates ([2]; 2 μM Purpurin, adenosine 200 μg/ml, 72 hours): reduced to significantly lower levels
- formation of adenosine aggregates (aggregation level, Proteostat staining) [2]: significantly reduce the aggregation level
- formation of adenosine aggregates (aggregation level, Proteostat staining) ([2]; listed as purpurin): inhibited the formation of these aggregates

SMILES: NCC(=O)O [glycine]
- growth with glycine in the growth medium (gcv1Δ cells): dose-dependent growth inhibition

SMILES: N[C@@H](Cc1ccccc1)C(=O)O [phenylalanine]
- RB857 worms that didn't reach adulthood by day 10 ([3]; 100 mM Phenylalanine): more than 90%
- worms reaching adulthood on day 4 ([3]; RB857, 100 mM phenylalanine in minimal media): none of the worms reached adulthood on day 4
- number of worms ([3]; RB857, phenylalanine added): significantly reduced the number of worms
- growth of aro4Δ mutant with phenylalanine in the medium (aro4Δ mutant): growth inhibition
